Assay results published in article PMC9043997, “LEAP2 reduces postprandial glucose excursions and ad libitum food intake in healthy men” (Cell Reports Medicine, 2022).
Where a SMILES comes first, the peptide text is derived from it. Bridges are numbered along the chain shown (N, C = ends).

Columns and labels:
healthy men [1] = assay: Visual analog scale ratings of appetite-related sensations, crossover study; format: in vivo, human; conditions: healthy men n = 20, iv LEAP2 ~25 pmol/kg/min, 100 mm VAS, paired t test of AUC
Protocol: Sensations of hunger, satiety, prospective food consumption, fullness, nausea, comfort and thirst were rated on 100 mm VAS at timepoints −35, 0, 30, 75, 105, 135, 165, 195, 225 and 255 min and after the ad libitum meal.[34] After eating, participants evaluated the ad libitum meal by VAS with a score (median (interquartile range)) for appearance of 55 (36–72) mm, taste 65 (42–76) mm, off-notes 17 (7–31) mm, smell 63 (50–72) mm and overall impression 59 (45–73) mm indicating a moderate evaluation of the meal.

healthy men [2] = assay: Indirect calorimetry and renal urea excretion; format: in vivo, human; conditions: iv LEAP2 ~25 pmol/kg/min
Protocol: Resting energy expenditure and respiratory quotient were measured by indirect calorimetry (Vyntus CPX Canopy; Vyaire Medical, Höchberg, Germany) for 15 min at timepoints −25 (baseline), 45, 120 and 240 min, with the participants awake and in a supine position from 5 min prior to each test. Participants rested in a hospital bed for 30 min before the first test and throughout the experimental day. The gas and flow analyzers were calibrated before each test. The first 5 min and the last minute of data collection were subsequently discarded, and the mean of a 5-min steady state period defined as a coefficient of variation <10% for VO2 and CO2 was used to estimate resting energy expenditure and respiratory quotient for each test. The 5-min steady state period with the lowest resting energy expenditure and with a respiratory quotient between 0.7 and 1.0 was considered. In a few cases without a 5-min steady state period, a 4-min steady state period was considered.[35]^,[36] In the present study, a steady state period of 5 min was successfully reached in […] out of 160 tests. One participant was excluded from the subsequent data analysis due to no steady state period in any of the four tests during an experimental day. A 4-min steady state period was considered in six cases reaching a total of 23 excluded tests from the data analysis.
To assess the amount of protein breakdown after the liquid mixed meal, urine samples were collected at timepoints 135 and 255 min for measurement of renal urea excretion and total urine production. At timepoint 60 min, 5 min prior to ingestion of the liquid mixed meal, participants were asked to empty their urinary bladder.

wild-type mice = assay: Plasma glucose and food intake after subcutaneous LEAP2 in wild-type mice; format: in vivo, mouse
Protocol: (§1) Food intake and blood glucose measurements were measured in female GHSR-null mice (n = 8) and wild-type littermates (n = 10) (14–24 weeks of age). Mice were double-housed with matching genotype and age. All mice were fasted for four hours and randomized by mean body weight per cage and allocated into either vehicle (saline) or LEAP2 administration on the first day of the study. LEAP2 or vehicle was administered subcutaneously just before start of dark phase (6 PM). By start of dark phase, mice had ad libitum access to water and a normal chow diet. Cumulative food intake was measured one, two and four hours after administration and calculated as the average food intake per cage per g body weight of each mouse, respectively. Blood glucose was measured in blood from a tail puncture at baseline and one, two and four hours after administration by use of a glucometer (Contour ™xt meter; Ascensia Diabetes Care, Basel, Switzerland). One week later, mice underwent the same procedure, but with the opposite treatment. The concentration of the LEAP2 dose was 3 μmol/kg.

GHSR-null mice = assay: Plasma glucose and food intake after subcutaneous LEAP2 in GHSR-null mice; format: in vivo, mouse; conditions: female GHSR-null mice n = 8, LEAP2 3 μmol/kg subcutaneous
Protocol: as §1

`CC[C@H](C)[C@@H]1NC(=O)[C@@H]2CSSC[C@@H](C(=O)N[C@@H](CO)C(=O)N[C@@H](CC(C)C)C(=O)N[C@@H](CO)C(=O)N[C@H](C(=O)N[C@@H](C)C(=O)N[C@@H](CCC(N)=O)C(=O)N[C@@H](CCC(=O)O)C(=O)O)C(C)C)NC(=O)[C@H](CCCNC(=N)N)NC(=O)[C@H](CCCNC(=N)N)NC(=O)[C@H](CCCCN)NC(=O)[C@H](CCCNC(=N)N)NC(=O)[C@H](CSSC[C@H](NC(=O)[C@H](CO)NC(=O)[C@H](C)NC(=O)CNC(=O)[C@@H](NC(=O)[C@@H]3CCCN3C(=O)[C@H](CCCNC(=N)N)NC(=O)[C@H](CC(C)C)NC(=O)[C@H](CO)NC(=O)[C@@H](NC(=O)CNC(=O)[C@H](CCCNC(=N)N)NC(=O)[C@H](Cc3c[nH]c4ccccc34)NC(=O)[C@H](Cc3ccccc3)NC(=O)[C@@H]3CCCN3C(=O)[C@@H](NC(=O)[C@@H](N)CCSC)[C@@H](C)O)C(C)C)[C@@H](C)CC)C(=O)N[C@@H](CCCNC(=N)N)C(=O)N[C@@H](CC(=O)O)C(=O)N[C@@H](CC(=O)O)C(=O)N[C@@H](CO)C(=O)N[C@@H](CCC(=O)O)C(=O)N2)NC(=O)[C@H](CC(C)C)NC(=O)[C@H](CCCNC(=N)N)NC(=O)[C@H]([C@@H](C)O)NC1=O` [LEAP2, liver-expressed antimicrobial peptide 2] (H-MTPFWRGVSLRPIGASCRDDSECITRLCRKRRCSLSVAQE-OH; disulfide 17-28, 23-33 (inferred); N-terminus and C-terminus assumed) was tested, and the “VAS ratings of hunger, satiety, prospective food consumption, fullness, nausea, comfort, or thirst, LEAP2 vs placebo” value (healthy men [1]) was “no differences”, the “resting energy expenditure, LEAP2 vs placebo” value (healthy men [2]; indirect calorimetry) was “no differences” and the “respiratory quotient, LEAP2 vs placebo” value (healthy men [2]; indirect calorimetry, data not shown) was “no differences”. The “renal urea excretion, LEAP2 vs placebo” value (healthy men [2]; two consecutive time points (135 and 255 min) or total, data not shown) was “no difference”, the “plasma glucose during ad libitum food intake 1 h after dosing vs vehicle” value (wild-type mice; female wild-type mice n = 10, LEAP2 3 μmol/kg single subcutaneous dose, after 4 h fast) was “significantly diminished increases in plasma glucose” and the “glucose-lowering effect at later time points (2 and 4 h)” value (wild-type mice; female wild-type mice n = 10, LEAP2 3 μmol/kg subcutaneous) was “not at the later time points”. The “cumulative food intake 2 and 4 h after dosing vs vehicle” value (wild-type mice; female wild-type mice n = 10, LEAP2 3 μmol/kg subcutaneous, chow ad libitum from start of dark phase) was “lowered the cumulative food intake”, the “cumulative food intake after dosing vs vehicle” value (GHSR-null mice) was “no effect” and the “plasma glucose after dosing vs vehicle” value (GHSR-null mice) was “did not affect plasma glucose”.
